# Assay results published in ChEMBL document CHEMBL4804286, “3-amino-4-(4-(4 (dimethylcarbamoyl) phenyl)-1,4-diazepan-1-yl) thieno [2,3-b] pyridine-2-carboxamide for use in cancer therapy and formulations comprising the same” (2020).
# Values joined by “and” are separate entries in the source; they are usually repeats but may differ in a detail not shown here. Equal values may be shown once. Active and inactive are the calls of the source. The calls are words filed in the database; no cut-off is given here.
# What was measured:
# [1] = system: Phosphatidylinositol 4,5-bisphosphate 3-kinase catalytic subunit alpha isoform (Homo sapiens), P42336 [E545A]; assay: Inhibition of human PIK3CA E545A mutant assessed as percent of control at 2000 nM by KINOMEscan assay relative to control; design: scale not given: the % may be the effect or the level left
# [2] = biological target: Phosphatidylinositol 4-kinase beta (Homo sapiens) (UniProt Q9UBF8); assay: Inhibition of human PIK4CB assessed as percent of control at 2000 nM by KINOMEscan assay relative to control; design: scale not given: the % may be the effect or the level left
# [3] = biological target: Tyrosine-protein kinase CSK (Homo sapiens) (UniProt P41240); assay: Inhibition of human CSK assessed as percent of control at 2000 nM by KINOMEscan assay relative to control; design: scale not given: the % may be the effect or the level left
# [4] = biological target: Serine/threonine-protein kinase TNNI3K (Homo sapiens) (UniProt Q59H18); assay: Inhibition of human TNNI3K assessed as percent of control at 2000 nM by KINOMEscan assay relative to control; design: scale not given: the % may be the effect or the level left
# [5] = biological target: Ephrin type-B receptor 1 (Homo sapiens) (UniProt P54762); assay: Inhibition of human EPHB1 assessed as percent of control at 2000 nM by KINOMEscan assay relative to control; design: scale not given: the % may be the effect or the level left
# [6] = system: Phosphatidylinositol 4,5-bisphosphate 3-kinase catalytic subunit alpha isoform (Homo sapiens), P42336 [M1043I]; assay: Inhibition of human PIK3CA M1043I mutant assessed as percent of control at 2000 nM by KINOMEscan assay relative to control; design: scale not given: the % may be the effect or the level left
# [7] = biological target: Platelet-derived growth factor receptor beta (Homo sapiens) (UniProt P09619); assay: Inhibition of human PDGFRB assessed as percent of control at 2000 nM by KINOMEscan assay relative to control; design: scale not given: the % may be the effect or the level left
# [8] = system: Mast/stem cell growth factor receptor Kit (Homo sapiens), P10721 [D816V]; assay: Inhibition of human KIT D816V mutant assessed as percent of control at 2000 nM by KINOMEscan assay relative to control; design: scale not given: the % may be the effect or the level left
# Chain of Mast/stem cell growth factor receptor Kit (Homo sapiens), P10721 [D816V] (P10721 whole entry D816V, canonical isoform): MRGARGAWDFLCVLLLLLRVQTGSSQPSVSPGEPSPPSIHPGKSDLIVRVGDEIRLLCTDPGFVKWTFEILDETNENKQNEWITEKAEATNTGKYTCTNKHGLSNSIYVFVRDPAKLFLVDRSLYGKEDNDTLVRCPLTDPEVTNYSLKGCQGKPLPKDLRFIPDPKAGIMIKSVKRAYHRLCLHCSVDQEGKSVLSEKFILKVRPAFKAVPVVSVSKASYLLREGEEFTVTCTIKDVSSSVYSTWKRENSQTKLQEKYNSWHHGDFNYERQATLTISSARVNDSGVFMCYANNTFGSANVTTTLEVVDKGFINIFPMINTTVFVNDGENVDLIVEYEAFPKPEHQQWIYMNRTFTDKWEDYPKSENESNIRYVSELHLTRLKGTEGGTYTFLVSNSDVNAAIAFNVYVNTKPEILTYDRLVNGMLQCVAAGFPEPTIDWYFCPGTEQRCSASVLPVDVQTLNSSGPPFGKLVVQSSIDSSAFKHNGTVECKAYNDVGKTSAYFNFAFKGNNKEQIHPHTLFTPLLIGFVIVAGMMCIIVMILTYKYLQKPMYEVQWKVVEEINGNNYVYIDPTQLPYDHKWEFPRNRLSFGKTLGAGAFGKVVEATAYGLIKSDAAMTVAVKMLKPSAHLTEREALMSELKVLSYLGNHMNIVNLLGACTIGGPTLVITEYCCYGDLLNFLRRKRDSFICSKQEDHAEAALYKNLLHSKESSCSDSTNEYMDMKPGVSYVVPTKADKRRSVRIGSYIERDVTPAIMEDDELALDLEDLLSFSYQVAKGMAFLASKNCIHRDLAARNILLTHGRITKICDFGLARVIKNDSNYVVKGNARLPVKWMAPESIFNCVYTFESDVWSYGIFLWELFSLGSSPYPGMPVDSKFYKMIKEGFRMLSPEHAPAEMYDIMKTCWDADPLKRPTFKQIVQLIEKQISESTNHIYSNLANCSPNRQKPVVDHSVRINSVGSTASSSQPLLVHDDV
# [9] = system: Phosphatidylinositol 4,5-bisphosphate 3-kinase catalytic subunit alpha isoform (Homo sapiens), P42336 [Q546K]; assay: Inhibition of human PIK3CA Q546K mutant assessed as percent of control at 2000 nM by KINOMEscan assay relative to control; design: scale not given: the % may be the effect or the level left
# [10] = biological target: Serine/threonine-protein kinase tousled-like 2 (Homo sapiens) (UniProt Q86UE8); assay: Inhibition of human TLK2 assessed as percent of control at 2000 nM by KINOMEscan assay relative to control; design: scale not given: the % may be the effect or the level left
# [11] = biological target: Cyclin-dependent kinase 13 (Homo sapiens) (UniProt Q14004); assay: Inhibition of human CDC2L5 assessed as percent of control at 2000 nM by KINOMEscan assay relative to control; design: scale not given: the % may be the effect or the level left
# Chain of Cyclin-dependent kinase 13 (Homo sapiens) (Q14004 whole entry, looked up): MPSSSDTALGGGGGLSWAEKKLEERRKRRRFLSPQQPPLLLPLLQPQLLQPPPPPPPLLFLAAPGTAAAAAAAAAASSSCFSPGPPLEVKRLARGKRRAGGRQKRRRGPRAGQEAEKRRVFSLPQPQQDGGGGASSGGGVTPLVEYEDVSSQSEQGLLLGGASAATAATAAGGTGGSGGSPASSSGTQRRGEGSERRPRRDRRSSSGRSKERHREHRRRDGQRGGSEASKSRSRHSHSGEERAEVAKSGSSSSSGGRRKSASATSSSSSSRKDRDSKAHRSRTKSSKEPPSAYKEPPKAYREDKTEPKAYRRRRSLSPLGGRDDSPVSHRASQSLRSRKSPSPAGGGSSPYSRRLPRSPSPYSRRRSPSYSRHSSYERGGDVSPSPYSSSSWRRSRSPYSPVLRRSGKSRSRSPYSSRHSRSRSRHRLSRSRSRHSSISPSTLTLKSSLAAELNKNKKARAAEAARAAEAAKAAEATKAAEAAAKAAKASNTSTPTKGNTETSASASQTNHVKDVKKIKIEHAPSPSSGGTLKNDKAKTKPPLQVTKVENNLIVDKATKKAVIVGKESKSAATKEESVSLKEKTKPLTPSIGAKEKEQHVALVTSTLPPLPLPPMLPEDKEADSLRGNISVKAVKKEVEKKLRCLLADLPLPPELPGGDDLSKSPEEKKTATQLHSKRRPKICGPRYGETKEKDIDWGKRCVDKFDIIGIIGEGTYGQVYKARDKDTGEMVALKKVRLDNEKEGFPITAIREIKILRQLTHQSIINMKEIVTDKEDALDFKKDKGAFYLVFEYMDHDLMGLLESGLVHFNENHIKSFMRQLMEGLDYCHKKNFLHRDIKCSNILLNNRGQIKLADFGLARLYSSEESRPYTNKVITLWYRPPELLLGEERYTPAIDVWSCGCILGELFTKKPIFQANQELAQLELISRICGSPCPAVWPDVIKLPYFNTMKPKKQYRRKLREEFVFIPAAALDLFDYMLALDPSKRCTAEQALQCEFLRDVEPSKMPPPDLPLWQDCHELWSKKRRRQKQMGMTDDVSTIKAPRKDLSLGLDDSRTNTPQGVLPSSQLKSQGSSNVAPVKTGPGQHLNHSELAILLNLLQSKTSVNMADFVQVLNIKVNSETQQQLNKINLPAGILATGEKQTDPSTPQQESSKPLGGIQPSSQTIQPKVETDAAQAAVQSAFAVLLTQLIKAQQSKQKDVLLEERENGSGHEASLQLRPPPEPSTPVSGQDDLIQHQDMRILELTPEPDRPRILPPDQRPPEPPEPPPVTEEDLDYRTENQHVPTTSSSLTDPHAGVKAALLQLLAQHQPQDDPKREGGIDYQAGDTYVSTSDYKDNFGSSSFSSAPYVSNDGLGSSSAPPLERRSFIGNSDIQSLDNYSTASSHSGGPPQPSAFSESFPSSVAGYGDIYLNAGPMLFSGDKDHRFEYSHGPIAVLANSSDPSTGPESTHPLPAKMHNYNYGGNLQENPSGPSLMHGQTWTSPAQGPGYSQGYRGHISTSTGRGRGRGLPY
# [12] = biological target: Epidermal growth factor receptor (Homo sapiens) (UniProt P00533); assay: Inhibition of human EGFR assessed as percent of control at 2000 nM by KINOMEscan assay relative to control; design: scale not given: the % may be the effect or the level left
# [13] = biological target: Tyrosine-protein kinase Blk (Homo sapiens) (UniProt P51451); assay: Inhibition of human BLK assessed as percent of control at 2000 nM by KINOMEscan assay relative to control; design: scale not given: the % may be the effect or the level left
# Chain of Tyrosine-protein kinase Blk (Homo sapiens) (P51451 2-505 limits assumed): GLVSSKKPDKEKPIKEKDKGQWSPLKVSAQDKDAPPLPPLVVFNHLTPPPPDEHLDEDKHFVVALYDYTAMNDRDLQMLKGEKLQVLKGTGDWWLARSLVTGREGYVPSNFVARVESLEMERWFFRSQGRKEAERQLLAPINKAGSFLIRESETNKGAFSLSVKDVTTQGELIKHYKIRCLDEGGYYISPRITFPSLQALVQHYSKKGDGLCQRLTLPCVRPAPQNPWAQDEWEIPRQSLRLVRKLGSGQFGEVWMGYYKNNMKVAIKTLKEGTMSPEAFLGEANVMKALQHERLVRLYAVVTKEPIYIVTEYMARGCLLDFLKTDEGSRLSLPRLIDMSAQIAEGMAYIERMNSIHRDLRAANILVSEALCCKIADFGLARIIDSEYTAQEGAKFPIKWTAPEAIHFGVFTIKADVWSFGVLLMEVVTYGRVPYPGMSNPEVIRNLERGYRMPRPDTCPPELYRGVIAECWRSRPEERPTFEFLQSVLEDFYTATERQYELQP
# [14] = biological target: Inhibitor of nuclear factor kappa-B kinase subunit beta (Homo sapiens) (UniProt O14920); assay: Inhibition of human IKK-beta assessed as percent of control at 2000 nM by KINOMEscan assay relative to control; design: scale not given: the % may be the effect or the level left
# [15] = biological target: TRAF2 and NCK-interacting protein kinase (Homo sapiens) (UniProt Q9UKE5); assay: Inhibition of human TNIK assessed as percent of control at 2000 nM by KINOMEscan assay relative to control; design: scale not given: the % may be the effect or the level left
# [16] = system: Tyrosine-protein kinase ABL1 (Homo sapiens), P00519 [T315I]; assay: Inhibition of phosphorylated human ABL1 T315I mutant assessed as percent of control at 2000 nM by KINOMEscan assay relative to control; design: scale not given: the % may be the effect or the level left
# [17] = biological target: Interferon-induced, double-stranded RNA-activated protein kinase (Homo sapiens) (UniProt P19525); assay: Inhibition of human PRKR assessed as percent of control at 2000 nM by KINOMEscan assay relative to control; design: scale not given: the % may be the effect or the level left
# [18] = system: Epidermal growth factor receptor (Homo sapiens), P00533 [UNDEFINED MUTATION]; assay: Inhibition of human EGFR L747-T751del/Sins double mutant assessed as percent of control at 2000 nM by KINOMEscan assay relative to control; design: scale not given: the % may be the effect or the level left
# [19] = biological target: Serine/threonine-protein kinase pim-1 (Homo sapiens) (UniProt P11309); assay: Inhibition of human PIM1 assessed as percent of control at 2000 nM by KINOMEscan assay relative to control; design: scale not given: the % may be the effect or the level left
# Chain of Serine/threonine-protein kinase pim-1 (Homo sapiens) (P11309 whole entry, looked up): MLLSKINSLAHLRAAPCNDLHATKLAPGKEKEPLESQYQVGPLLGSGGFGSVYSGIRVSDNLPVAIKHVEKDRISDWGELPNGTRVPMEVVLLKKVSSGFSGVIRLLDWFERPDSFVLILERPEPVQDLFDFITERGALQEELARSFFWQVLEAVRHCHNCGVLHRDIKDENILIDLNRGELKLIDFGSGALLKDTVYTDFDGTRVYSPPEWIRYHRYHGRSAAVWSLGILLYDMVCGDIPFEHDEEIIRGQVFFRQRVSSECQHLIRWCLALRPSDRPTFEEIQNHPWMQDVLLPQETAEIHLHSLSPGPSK
# [20] = biological target: Microtubule-associated serine/threonine-protein kinase 1 (Homo sapiens) (UniProt Q9Y2H9); assay: Inhibition of human MAST1 assessed as percent of control at 2000 nM by KINOMEscan assay relative to control; design: scale not given: the % may be the effect or the level left
# [21] = biological target: Proto-oncogene tyrosine-protein kinase Src (Homo sapiens) (UniProt P12931); assay: Inhibition of human SRC assessed as percent of control at 2000 nM by KINOMEscan assay relative to control; design: scale not given: the % may be the effect or the level left
# CWR22R = assay: Antitumor activity against human 22Rv1 cells expressing AR-V7 xenografted in male nude mouse assessed as suppression of tumor growth at 25 mg/kg, administered twice a day for 40 days; type: functional, organism-based
# [22] = system: Mast/stem cell growth factor receptor Kit (Homo sapiens), P10721 [V559D]; assay: Inhibition of human KIT V559D mutant assessed as percent of control at 2000 nM by KINOMEscan assay relative to control; design: scale not given: the % may be the effect or the level left
# Chain of Mast/stem cell growth factor receptor Kit (Homo sapiens), P10721 [V559D] (P10721 whole entry V559D): as the sequence (P10721 whole entry D816V, canonical isoform) above, with V559D, V816D counted along it
# [23] = biological target: Serine/threonine-protein kinase 4 (Homo sapiens) (UniProt Q13043); assay: Inhibition of human MST1 assessed as percent of control at 2000 nM by KINOMEscan assay relative to control; design: scale not given: the % may be the effect or the level left
# [24] = biological target: Serine/threonine-protein kinase MAK (Homo sapiens) (UniProt P20794); assay: Inhibition of human MAK assessed as percent of control at 2000 nM by KINOMEscan assay relative to control; design: scale not given: the % may be the effect or the level left
# Chain of Serine/threonine-protein kinase MAK (Homo sapiens) (P20794 whole entry, the tested form may be a part): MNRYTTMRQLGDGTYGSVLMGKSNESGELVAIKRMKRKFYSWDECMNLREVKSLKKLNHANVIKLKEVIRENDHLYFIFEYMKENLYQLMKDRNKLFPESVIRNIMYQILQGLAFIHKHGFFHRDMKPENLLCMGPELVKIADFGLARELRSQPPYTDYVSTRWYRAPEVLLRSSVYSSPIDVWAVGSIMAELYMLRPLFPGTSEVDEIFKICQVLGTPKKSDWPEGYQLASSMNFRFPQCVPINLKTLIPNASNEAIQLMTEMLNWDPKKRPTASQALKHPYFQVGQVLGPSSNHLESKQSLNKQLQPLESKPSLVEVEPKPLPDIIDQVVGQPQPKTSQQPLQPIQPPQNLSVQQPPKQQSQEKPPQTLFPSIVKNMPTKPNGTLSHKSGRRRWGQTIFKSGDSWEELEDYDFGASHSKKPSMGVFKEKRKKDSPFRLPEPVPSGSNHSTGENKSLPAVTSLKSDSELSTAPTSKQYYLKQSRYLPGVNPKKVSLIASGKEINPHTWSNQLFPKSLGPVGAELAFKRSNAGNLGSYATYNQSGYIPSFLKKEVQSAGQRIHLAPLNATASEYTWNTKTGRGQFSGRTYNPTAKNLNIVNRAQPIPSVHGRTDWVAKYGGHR
# [25] = biological target: Ribosomal protein S6 kinase alpha-1 (Homo sapiens) (UniProt Q15418); assay: Inhibition of human N-terminal RSK1 kinase domain 1 assessed as percent of control at 2000 nM by KINOMEscan assay relative to control; design: scale not given: the % may be the effect or the level left
# [26] = biological target: Phosphatidylinositol 5-phosphate 4-kinase type-2 beta (Homo sapiens) (UniProt P78356); assay: Inhibition of human PIP5K2B assessed as percent of control at 2000 nM by KINOMEscan assay relative to control; design: scale not given: the % may be the effect or the level left
# [27] = biological target: Homeodomain-interacting protein kinase 2 (Homo sapiens) (UniProt Q9H2X6); assay: Inhibition of human HIPK2 assessed as percent of control at 2000 nM by KINOMEscan assay relative to control; design: scale not given: the % may be the effect or the level left
# [28] = biological target: Serine/threonine-protein kinase ULK2 (Homo sapiens) (UniProt Q8IYT8); assay: Inhibition of human ULK2 assessed as percent of control at 2000 nM by KINOMEscan assay relative to control; design: scale not given: the % may be the effect or the level left
# [29] = system: Epidermal growth factor receptor (Homo sapiens), P00533 [T790M]; assay: Inhibition of human EGFR T790M mutant assessed as percent of control at 2000 nM by KINOMEscan assay relative to control; design: scale not given: the % may be the effect or the level left
smiles,measurement,setting,value
CN(C)C(=O)c1ccc(N2CCCN(c3ccnc4sc(C(N)=O)c(N)c34)CC2)cc1,Activity,[1],100% and 92%
same,Activity,[2],65%
same,Activity,[2]; INHIBITOR,33%
same,Activity,[3],86% and 92%
same,Activity,[4],100%
same,Activity,[5],88%
same,Activity,[6],96% and 95%
same,Activity,[7],100% and 93%
same,Activity,[8],93% and 79%
same,Activity,[9],66% and 72%
same,Activity,[10],100% and 97%
same,Activity,[11],71% and 80%
same,Activity,[12],100% and 87%
same,Activity,[13],100% and 92%
same,Activity,[14],89% and 71%
same,Activity,[15],100% and 91%
same,Activity,[16],100% and 85%
same,Activity,[17],100%
same,Activity,[18],87% and 100%
same,Activity,[19],88% and 100%
same,Activity,[20],92%
same,Activity,[21],100% and 96%
same,Activity,CWR22R,Active
same,Activity,[22],98% and 91%
same,Activity,[23],100% and 98%
same,Activity,[24],100% and 91%
same,Activity,[25],98% and 96%
same,Activity,[26],92% and 95%
same,Activity,[27],100% and 81%
same,Activity,[28],90% and 83%
same,Activity,[29],98% and 87%
